In brackets after ≈: the same amount, converted by molar mass. Activity calls are given as the source filed them. The calls are words filed in the database; no cut-off is given here.
What was measured:
KB [1] = assay: Cytotoxicity against human KB cells at 25 ug/ml after 48 hrs; assay type: functional, cell-based
P388 [2] = assay: Cytotoxicity against mouse P388 cells at 25 ug/ml after 48 hrs; assay type: functional, cell-based
P388 [3] = assay: Cytotoxicity against mouse P388 cells after 48 hrs; assay type: functional; conditions: P388, 48 h, read-out: ED50 (the source's name)
LX-1 [4] = assay: In vivo antitumor activity against human LX1 cells at 1200 mg/kg administered on day 1, 5 and 9 relative to control; assay type: functional
LX-1 [5] = assay: In vivo antitumor activity against human LX1 cells at 600 mg/kg administered on day 1, 5 and 9 relative to control; assay type: functional
LX-1 [6] = assay: In vivo antitumor activity against human LX1 cells at 300 mg/kg administered on day 1, 5 and 9 relative to control; assay type: functional
MX1 [7] = assay: In vivo antitumor activity against human MX1 cells at 1200 mg/kg administered on day 1, 5 and 9 relative to control; assay type: functional
MX1 [8] = assay: In vivo antitumor activity against human MX1 cells at 600 mg/kg administered on day 1, 5 and 9 relative to control; assay type: functional
MX1 [9] = assay: In vivo antitumor activity against human MX1 cells at 300 mg/kg relative to control on day 1, 5 and 9 relative to control; assay type: functional
MX1 [10] = assay: In vivo antitumor activity against human MX1 cells at 150 mg/kg administered on day 1, 5 and 9 relative to control; assay type: functional
P388 [11] = assay: In vivo antitumor activity against mouse P388 cells at 320 mg/kg for 1 to 9 days relative to control; assay type: functional
P388 [12] = assay: In vivo antitumor activity against mouse P388 cells at 160 mg/kg for 1 to 9 days relative to control; assay type: functional
P388 [13] = assay: In vivo antitumor activity against mouse P388 cells at 80 mg/kg for 1 to 9 days relative to control; assay type: functional
P388 [14] = assay: In vivo antitumor activity against mouse P388 cells at 40 mg/kg for 1 to 9 days relative to control; assay type: functional
P388 [15] = assay: In vivo antitumor activity against mouse P388 cells at 100 mg/kg for 1 to 10 days relative to control; assay type: functional
P388 [16] = assay: In vivo antitumor activity against mouse P388 cells at 50 mg/kg for 1 to 10 days relative to control; assay type: functional
P388 [17] = assay: In vivo antitumor activity against mouse P388 cells at 25 mg/kg for 1 to 10 days relative to control; assay type: functional
P388 [18] = assay: In vivo antitumor activity against mouse P388 cells at 320 mg/kg administered on day 1, 5 and 9 relative to control; assay type: functional
P388 [19] = assay: In vivo antitumor activity against mouse P388 cells at 160 mg/kg administered on day 1, 5 and 9 relative to control; assay type: functional
P388 [20] = assay: In vivo antitumor activity against mouse P388 cells at 80 mg/kg administered on day 1, 5 and 9 relative to control; assay type: functional
P388 [21] = assay: In vivo antitumor activity against mouse P388 cells at 40 mg/kg administered on day 1, 5 and 9 relative to control; assay type: functional
KB [22] = assay: Cytotoxicity against human KB cells after 48 hrs; assay type: functional; conditions: read-out: ED50 (the source's name)
B16 [23] = assay: In vivo antitumor activity against mouse B16 cells at 200 mg/kg for 1 to 9 days relative to control; assay type: functional
B16 [24] = assay: In vivo antitumor activity against mouse B16 cells at 100 mg/kg for 1 to 9 days relative to control; assay type: functional
B16 [25] = assay: In vivo antitumor activity against mouse B16 cells at 50 mg/kg for 1 to 9 days relative to control; assay type: functional
[26] = In vivo antitumor activity against mouse CD8F1 cells at 2000 mg/kg on day 24 relative to control; assay type: functional
[27] = In vivo antitumor activity against mouse CD8F1 cells at 1000 mg/kg administered on day 24 relative to control; assay type: functional
[28] = In vivo antitumor activity against mouse CD8F1 cells at 500 mg/kg administered on day 24 relative to control; assay type: functional
[29] = In vivo antitumor activity against mouse CD8F1 cells at 250 mg/kg administered on day 24 relative to control; assay type: functional
[30] = In vivo antitumor activity against mouse CD8F1 cells at 125 mg/kg administered on day 24 relative to control; assay type: functional
CX-1 [31] = assay: In vivo antitumor activity against human CX-1 cells at 600 mg/kg administered on day 1, 5, 9 and 13 relative to control; assay type: functional
CX-1 [32] = assay: In vivo antitumor activity against human CX-1 cells at 300 mg/kg administered on day 1, 5, 9 and 13 relative to control; assay type: functional
CX-1 [33] = assay: In vivo antitumor activity against human CX-1 cells at 150 mg/kg administered on day 1, 5,9 and 13 relative to control; assay type: functional
CX-1 [34] = assay: In vivo antitumor activity against human CX-1 cells at 75 mg/kg administered on day 1, 5,9 and 13 relative to control; assay type: functional
Colon 26 [35] = assay: In vivo antitumor activity against mouse Colon 26 cells at 320 mg/kg administered on day 1, 5 and 9 relative to control; assay type: functional
Colon 26 [36] = assay: In vivo antitumor activity against mouse Colon 26 cells at 160 mg/kg administered on day 1, 5 and 9 relative to control; assay type: functional
Colon 26 [37] = assay: In vivo antitumor activity against mouse Colon 26 cells at 80 mg/kg administered on day 1, 5 and 9 relative to control; assay type: functional
Colon 26 [38] = assay: In vivo antitumor activity against mouse Colon 26 cells at 40 mg/kg administered on day 1, 5 and 9 relative to control; assay type: functional
MC-38 [39] = assay: In vivo antitumor activity against mouse Colon 38 cells at 200 mg/kg administered on day 2 and 9 relative to control; assay type: functional
MC-38 [40] = assay: In vivo antitumor activity against mouse Colon 38 cells at 100 mg/kg administered on day 2 and 9 relative to control; assay type: functional
MC-38 [41] = assay: In vivo antitumor activity against mouse Colon 38 cells at 50 mg/kg administered on day 2 and 9 relative to control; assay type: functional
L1210 [42] = assay: In vivo antitumor activity against mouse L1210 cells at 320 mg/kg administered on day 1 and 9 relative to control; assay type: functional
L1210 [43] = assay: In vivo antitumor activity against mouse L1210 cells at 160 mg/kg administered on day 1 and 9 relative to control; assay type: functional
L1210 [44] = assay: In vivo antitumor activity against mouse L1210 cells at 80 mg/kg administered on day 1 and 9 relative to control; assay type: functional
L1210 [45] = assay: In vivo antitumor activity against mouse L1210 cells at 40 mg/kg administered on day 1 and 9 relative to control; assay type: functional
L1210 [46] = assay: In vivo antitumor activity against mouse L1210 cells at 320 mg/kg administered on day 1, 5 and 9 relative to control; assay type: functional
L1210 [47] = assay: In vivo antitumor activity against mouse L1210 cells at 160 mg/kg administered on day 1, 5 and 9 relative to control; assay type: functional
L1210 [48] = assay: In vivo antitumor activity against mouse L1210 cells at 80 mg/kg administered on day 1, 5 and 9 relative to control; assay type: functional
L1210 [49] = assay: In vivo antitumor activity against mouse L1210 cells at 40 mg/kg administered on day 1, 5 and 9 relative to control; assay type: functional
[50] = tested on: Lewis lung carcinoma cell line; assay: In vivo antitumor activity against mouse LLC cells at 200 mg/kg for 1 to 9 days relative to control; assay type: functional
[51] = tested on: Lewis lung carcinoma cell line; assay: In vivo antitumor activity against mouse LLC cells at 100 mg/kg for 1 to 9 days relative to control; assay type: functional
[52] = tested on: Lewis lung carcinoma cell line; assay: In vivo antitumor activity against mouse LLC cells at 50 mg/kg for 1 to 9 days relative to control; assay type: functional
[53] = tested on: Lewis lung carcinoma cell line; assay: In vivo antitumor activity against mouse LLC cells at 25 mg/kg for 1 to 9 days relative to control; assay type: functional
LX-1 [54] = assay: In vivo antitumor activity against human LX1 cells at 2400 mg/kg administered on day 1, 5 and 9 relative to control; assay type: functional

In the case of `COc1cc2cnc3c4cc(OC)c(OC(C)=O)cc4ccc3c2cc1OC`, the Activity (KB [1]) is reported as “inactive” and the Activity (P388 [2]) is reported as “inactive”.

In the case of `COc1cc2c(ccc3c4cc(OC)c(OC)cc4cnc23)cc1O`, the Activity (KB [1]) is reported as “inactive” and the EC50 (P388 [3]) is reported as 36.5 mg/L (≈ 109 µM).

With `COc1cc2cnc3c4cc(OC)c(OC)cc4ccc3c2cc1OC` the Activity (KB [1]) was “inactive” and the Activity (P388 [2]) was “inactive”.

`COc1cc2c(ccc3c4cc(OC)c(OC)cc4c[n+](C)c23)cc1O.[Cl-]` [FAGARONINE] gave a T/C (LX-1 [4]) of 46%, a T/C (LX-1 [5]) of 79% and a T/C (LX-1 [6]) of 107%. The T/C (MX1 [7]) was 68%, the T/C (MX1 [8]) was 79% and the T/C (MX1 [9]) was 74%. The T/C (MX1 [10]) was 83%, the T/C (P388 [11]) was 205% and the T/C (P388 [12]) was 270%. The T/C (P388 [13]) was 210%, the T/C (P388 [14]) was 190% and the T/C (P388 [15]) was 265%. The T/C (P388 [16]) was 210%, the T/C (P388 [17]) was 90% and the T/C (P388 [18]) was 270%. The T/C (P388 [19]) was 215%, the T/C (P388 [20]) was 180% and the T/C (P388 [21]) was 190%. It also gave an EC50 (KB [22]) of 0.57 mg/L, an EC50 (P388 [3]) of 0.18 mg/L and a T/C (B16 [23]) of 100%. The T/C (B16 [24]) was 97%, the T/C (B16 [25]) was 108% and the T/C [26] was 121%. For the same compound, the T/C [27] was 89%, the T/C [28] was 134% and the T/C [29] was 190%. It also gave a T/C [30] of 137%, a T/C (CX-1 [31]) of 75% and a T/C (CX-1 [32]) of 51%. The T/C (CX-1 [33]) was 42%, the T/C (CX-1 [34]) was 49% and the T/C (Colon 26 [35]) was 138%. The T/C (Colon 26 [36]) was 120%, the T/C (Colon 26 [37]) was 121% and the T/C (Colon 26 [38]) was 117%. It also gave a T/C (MC-38 [39]) of 81%, a T/C (MC-38 [40]) of 89% and a T/C (MC-38 [41]) of 139%. The T/C (L1210 [42]) was 161%, the T/C (L1210 [43]) was 145% and the T/C (L1210 [44]) was 159%. For the same compound, the T/C (L1210 [45]) was 137%, the T/C (L1210 [46]) was 137% and the T/C (L1210 [47]) was 136%. For the same compound, the T/C (L1210 [48]) was 145%, the T/C (L1210 [49]) was 143% and the T/C [50] was 134%. It also gave a T/C [51] of 125%, a T/C [52] of 113% and a T/C [53] of 111%. It also gave a T/C (LX-1 [54]) of 65%.

In the case of `COc1cc2c(cnc3c4cc(OC)c(OC(C)=O)cc4ccc23)cc1OC(C)=O`, the EC50 (KB [22]) is reported as 50 mg/L (≈ 123 µM) and the EC50 (P388 [3]) is reported as 12.5 mg/L (≈ 30.8 µM).

`COc1cc2c(cnc3c4cc(OC)c(O)cc4ccc23)cc1O` showed an EC50 (KB [22]) of 22.4 mg/L (≈ 69.7 µM) and an EC50 (P388 [3]) of 13 mg/L (≈ 40.5 µM).

From ChEMBL document CHEMBL1151613, “Potential anticancer agents XXXI. N-demethylation of fagaronine” (1984)
